Results reported in paper PMC3997483, “Aminostyrylbenzofuran Directly Reduces Oligomeric Amyloid-β and Reverses Cognitive Deficits in Alzheimer Transgenic Mice” (PLoS ONE, 2014).
≈ marks a conversion by molar mass, not a printed value. Like-named read-outs stand apart in the source and are kept apart here.

Legend:
[1] = Pharmacokinetics IV/PO in rats; type: in vivo, SD rats; conditions: for AUC(0-t): read-out: AUC0–24h
Experimental: Pharmacokinetics profile of KMS88009 was obtained using ICR mice, SD rats, beagle dogs and cynomolgus monkeys. Animals were fasted overnight before KMS88009 administration. Mice were divided into 2 groups to receive KMS88009 as a single dose of 2.1 mg/kg intravenous (IV) bolus or 10 mg/kg orally (PO) by gavage. Additionally, KMS88009 was administered orally to estimate the BBB penetration in mice (10, 30 and 100 mg/kg). […] Dog received KMS88009 either as an IV bolus (1 mg/kg) via the great saphenous vein or by oral gavage (4 mg/kg). KMS88009 was administrated to monkeys as an IV bolus (1 mg/kg) via the femoral vein or by oral gavage (4 mg/kg). Vehicle for IV and PO administration was DMSO/tween-20/saline (3.3∶19.8∶[…]). […]. Brain samples were weighed and Daunce-homogenized in 10-fold volume of ice-chilled 4% bovine serum albumin (BSA) solution at room temperature. Plasma and brain homogenates were kept frozen at −70°C until analysis. The levels of KMS88009 were determined by the LC-MS/MS analysis. Pharmacokinetic parameters, time to the maximum concentration (Tmax), maximum concentration (Cmax), elimination half-life (T1/2), volume of distribution (Vd), clearance (Cl) and mean residual time (MRT), of KMS88009 were calculated based on plasma concentration-time data by a non-compartmental method using WinNonlin Version 5.2 (Pharsight, USA). Area under the curve from 0 to 24 hr (AUC0-24h) and area under the curve from 0 to infinity (AUCINF) were obtained by linear and log linear trapezoidal summations.

Solubility studies = type: physicochemical
Experimental: Solubility studies Solubility of KMS88009 in distilled water (DW), simulated gastric fluid (SGF, pH 1.2), simulated intestinal fluid (SIF, pH 6.8) and DMSO/tween-20/saline was determined. Excess amounts of KMS88009 were placed in screw-capped vials containing 2 mL of DW, SGF, SIF and DMSO/tween-20/saline. Suspensions were vortexed for 2 min and kept in a shaking water-bath at 37 °C. We transferred 250 μL of each sample to the filter insert of centrifuge tubes. After centrifugation at 16,000 rpm for 15 min, the filtrates of DW, SGF and SIF were analyzed by HPLC (Agilent 1200 series, USA). Values are expressed as the mean ± SD of 2 independent experiments.

soluble Aβ oligomers = assay: Dot-blot immunoassay (A11/6E10) of soluble Aβ oligomers in hippocampus, prophylactic trial; type: in vivo, mouse; conditions: hippocampus soluble fraction
Experimental: Mice subjected to behavior tests were sacrificed and levels of Aβ in their brains were analyzed. After removing olfactory lobe and cerebellum of brain, hippocampus and cerebral cortex were separated. The separated regions were Dounce-homogenized first in 10-fold mass of a lysis buffer (RIPA, 150 mM NaCl, 1% NP-40, 0.5% deoxycholic acid, 0.1% SDS and 50 mM tris, pH 8.0) or tris buffer (50 mM tris and pH 8.0) containing protease inhibitor cocktail (Pierce, USA) for prophylactic or therapeutic treatment groups, respectively. The homogenates were then centrifuged at 16,000 g for 20 min at 4°C. The supernatant (soluble Aβ fraction) was collected and stored at −70°C until analyzed. The resulting pellet was solubilized in 20-fold mass of cold guanidine solution (5 M guanidine HCl, 50 mM tris HCl and pH 8.0) at room temperature for 4 hr followed by dilution with cold Dulbecco's phosphate buffered saline (PBS) with 5% BSA and 0.03% tween-20. The diluent was centrifuged at 16,000 g for 20 min at 4°C to obtain the insoluble Aβ fraction. The tissue concentrations of Aβ40 and Aβ42 in the soluble and insoluble fraction were measured using Aβ-detecting sandwich enzyme-linked immunosorbent assay (ELISA) kit (BioSource, USA). The levels of soluble Aβ oligomers were measured by a dot-blot immunoassay with an anti-oligomer antibody and an anti-Aβ antibody on soluble fraction of hippocampus homogenates. The homogenate sample (3 µL) was spotted onto nitrocellulose membrane (Whatman, UK). After blocking with 5% BSA in tris-buffered saline (TBS) for 1 hr at room temperature, the membrane was incubated with rabbit anti-oligomer polyclonal antibody (A11; 1∶1,000; Millipore, USA) overnight at 4°C, followed by incubation with HRP-secondary anti-rabbit antibody (1∶5,000; Millipore, USA) for 1 hr at room temperature. Blots were developed using ECL reagents (PerkinElmer, USA). […] The density of dots was analyzed with Multi Gauge program (Fuji Film, Japan) and the data was normalized to the average density of the TG control group. […]

Work on `COc1ccc2cc(C=Cc3ccc(N(C)C)cc3)oc2c1` [KMS88009, 6-methoxy-2-(4-dimethylaminostyryl) benzofuran] yielded an MRT last ([1]; SD, plasma, rat IV 1.25 mg/kg) of 1.8 h, a Vd ([1]; SD, plasma, rat IV 1.25 mg/kg) of 8 L/kg and a clearance ([1]; SD, plasma, rat IV 1.25 mg/kg) of 13.3 mL/min/kg. The half-life ([1]; SD, plasma, rat IV 1.25 mg/kg) was 7.2 h, the MRT last ([1]; SD, plasma, rat PO 2.5 mg/kg) was 4 h and the half-life ([1]; SD, plasma, rat PO 2.5 mg/kg) was 4 h. For the same molecule, the AUC(0-inf) ([1]; SD, rat IV 1.25 mg/kg, plasma) was 1670 ng·h/mL, the AUC(0-t) ([1]; SD, rat IV 1.25 mg/kg, plasma) was 1640 ng·h/mL and the AUC(0-inf) ([1]; SD, rat PO 2.5 mg/kg, plasma) was 929 ng·h/mL. The AUC(0-t) ([1]; SD, rat PO 2.5 mg/kg, plasma) was 908 ng·h/mL, the BA ([1]; rat PO […] vs IV 1.25 mg/kg) was 27.8% and the solubility (Solubility studies; DMSO/tween-20/saline, read-out: Solubility) was 583 µg/mL (≈ 1990 µM). It also gave a solubility (Solubility studies; DW (distilled water), 37 °C) of 0.000 mg/kg, a solubility (Solubility studies; SIF, pH 6.8, 37 °C) of 0.000 mg/kg and a solubility (Solubility studies; simulated gastric fluid (SGF), SGF, pH 1.2, 37 °C, read-out: Solubility) of 4 µg/mL (≈ 13.6 µM). For the same molecule, the “reduction of soluble oligomeric Aβ vs vehicle-treated TG group” value (from here on “reduction of soluble oligomeric Aβ”) (soluble Aβ oligomers; 10 mg/kg/day) was 43.1%, the “reduction of soluble oligomeric Aβ” value (soluble Aβ oligomers; 30 mg/kg/day) was 43.2% and the “reduction of soluble oligomeric Aβ” value (soluble Aβ oligomers; 100 mg/kg/day) was 46.4%.
